Laboratory results taken from ChEMBL document CHEMBL1152673, “Crystal structure of 3-isopropylmalate dehydrogenase in complex with NAD(+) and a designed inhibitor” (Bioorg Med Chem, 2009).

Target: 3-isopropylmalate dehydrogenase (Thermus thermophilus, UniProt Q5SIY4)
Assay: Inhibition of Thermus thermophilus HB8 IPMDH assessed as formation of NADH by Lineweaver-Burke plot analysis

Sequence of 3-isopropylmalate dehydrogenase (Q5SIY4 whole entry): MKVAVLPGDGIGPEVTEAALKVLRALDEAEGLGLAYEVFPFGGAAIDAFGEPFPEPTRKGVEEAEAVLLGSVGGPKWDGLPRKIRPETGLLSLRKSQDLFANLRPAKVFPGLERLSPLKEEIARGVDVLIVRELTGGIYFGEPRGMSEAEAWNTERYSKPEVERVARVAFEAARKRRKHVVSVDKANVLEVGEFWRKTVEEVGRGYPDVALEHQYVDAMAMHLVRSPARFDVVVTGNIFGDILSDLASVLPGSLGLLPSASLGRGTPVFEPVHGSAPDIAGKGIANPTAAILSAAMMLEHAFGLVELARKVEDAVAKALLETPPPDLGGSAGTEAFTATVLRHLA

CS[C@H](C(=O)O)[C@@H](O)C(=O)O
Ki: 62 nM
